Experimental data as given in ChEMBL document CHEMBL5291721, “A preclinical secondary pharmacology resource illuminates target-adverse drug reaction associations of marketed drugs” (Nat Commun, 2023).
Blank lines part the entries; values can stand above or below the compound they belong to.

Key:
[1] = molecular target: T1, Alpha-1A adrenergic receptor (Homo sapiens, UniProt P35348); format: functional, cell-based
T1 sequence (P35348 whole entry): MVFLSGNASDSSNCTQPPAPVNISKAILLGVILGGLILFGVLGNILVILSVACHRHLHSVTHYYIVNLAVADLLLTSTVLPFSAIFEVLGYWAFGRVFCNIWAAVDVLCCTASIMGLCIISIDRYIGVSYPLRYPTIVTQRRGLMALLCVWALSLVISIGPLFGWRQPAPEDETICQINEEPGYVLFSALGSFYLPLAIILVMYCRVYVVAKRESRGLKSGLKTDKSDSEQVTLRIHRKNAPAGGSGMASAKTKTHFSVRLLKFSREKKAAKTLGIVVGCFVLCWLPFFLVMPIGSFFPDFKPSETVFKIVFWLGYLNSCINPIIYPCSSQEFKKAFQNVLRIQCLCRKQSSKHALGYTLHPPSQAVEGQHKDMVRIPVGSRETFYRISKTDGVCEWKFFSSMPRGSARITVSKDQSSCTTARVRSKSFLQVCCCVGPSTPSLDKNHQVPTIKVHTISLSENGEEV

[2] = molecular target: Beta-1 adrenergic receptor (Homo sapiens, UniProt P08588); format: functional
Chain of Beta-1 adrenergic receptor (P08588 whole entry): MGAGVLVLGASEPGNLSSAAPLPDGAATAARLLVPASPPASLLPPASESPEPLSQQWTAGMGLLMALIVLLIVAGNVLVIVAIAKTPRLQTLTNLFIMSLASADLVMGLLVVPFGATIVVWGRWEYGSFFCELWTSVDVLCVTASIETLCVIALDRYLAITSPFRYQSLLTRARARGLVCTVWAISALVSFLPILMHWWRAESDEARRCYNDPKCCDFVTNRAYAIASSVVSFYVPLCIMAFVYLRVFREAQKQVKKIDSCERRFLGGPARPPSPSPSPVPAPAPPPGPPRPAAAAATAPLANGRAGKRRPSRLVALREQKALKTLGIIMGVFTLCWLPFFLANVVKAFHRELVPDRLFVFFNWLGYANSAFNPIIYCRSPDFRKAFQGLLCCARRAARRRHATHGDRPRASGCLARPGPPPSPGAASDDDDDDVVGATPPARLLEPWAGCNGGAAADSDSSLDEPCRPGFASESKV

[3] = molecular target: Voltage-dependent L-type calcium channel subunit alpha-1C (Rattus norvegicus, UniProt P22002); format: functional
[4] = molecular target: T2, Estrogen receptor (Homo sapiens, UniProt P03372)
T2 sequence (P03372 whole entry): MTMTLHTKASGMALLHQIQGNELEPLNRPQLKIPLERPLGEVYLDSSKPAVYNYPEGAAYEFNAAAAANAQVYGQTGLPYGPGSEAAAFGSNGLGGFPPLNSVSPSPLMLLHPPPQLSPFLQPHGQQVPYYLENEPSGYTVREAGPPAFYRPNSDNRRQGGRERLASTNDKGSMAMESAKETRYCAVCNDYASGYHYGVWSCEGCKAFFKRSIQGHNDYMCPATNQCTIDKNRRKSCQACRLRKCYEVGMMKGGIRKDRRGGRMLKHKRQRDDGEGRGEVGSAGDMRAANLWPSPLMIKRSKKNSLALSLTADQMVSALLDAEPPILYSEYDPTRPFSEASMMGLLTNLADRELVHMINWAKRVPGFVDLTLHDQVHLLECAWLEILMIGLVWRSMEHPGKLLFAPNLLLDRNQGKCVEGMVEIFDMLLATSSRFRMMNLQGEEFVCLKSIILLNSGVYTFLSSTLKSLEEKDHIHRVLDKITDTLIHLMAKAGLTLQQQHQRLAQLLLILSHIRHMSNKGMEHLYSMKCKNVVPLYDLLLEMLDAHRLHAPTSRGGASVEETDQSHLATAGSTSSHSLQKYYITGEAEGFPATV

[5] = molecular target: T3, Gamma-aminobutyric acid receptor subunit alpha-1 (Rattus norvegicus, UniProt P62813)
T3 sequence (P62813 whole entry): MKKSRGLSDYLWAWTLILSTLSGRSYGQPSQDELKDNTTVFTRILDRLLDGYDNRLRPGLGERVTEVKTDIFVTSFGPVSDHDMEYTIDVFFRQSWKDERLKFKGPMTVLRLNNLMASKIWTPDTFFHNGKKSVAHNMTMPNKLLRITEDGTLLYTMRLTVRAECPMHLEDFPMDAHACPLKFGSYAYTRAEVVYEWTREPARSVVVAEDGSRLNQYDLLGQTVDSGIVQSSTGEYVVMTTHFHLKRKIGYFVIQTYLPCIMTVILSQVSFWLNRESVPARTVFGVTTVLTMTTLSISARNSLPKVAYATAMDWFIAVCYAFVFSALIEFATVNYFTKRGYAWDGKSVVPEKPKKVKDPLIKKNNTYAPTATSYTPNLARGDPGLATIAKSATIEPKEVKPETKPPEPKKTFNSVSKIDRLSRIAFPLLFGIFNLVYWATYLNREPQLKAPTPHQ

[6] = molecular target: T3, Gamma-aminobutyric acid receptor subunit alpha-1; format: functional
[7] = molecular target: Glutamate receptor ionotropic, NMDA 1 (Rattus norvegicus, UniProt P35439)
[8] = molecular target: 5-hydroxytryptamine receptor 2B (Homo sapiens, UniProt P41595); format: functional, cell-based
Chain of 5-hydroxytryptamine receptor 2B (P41595 whole entry): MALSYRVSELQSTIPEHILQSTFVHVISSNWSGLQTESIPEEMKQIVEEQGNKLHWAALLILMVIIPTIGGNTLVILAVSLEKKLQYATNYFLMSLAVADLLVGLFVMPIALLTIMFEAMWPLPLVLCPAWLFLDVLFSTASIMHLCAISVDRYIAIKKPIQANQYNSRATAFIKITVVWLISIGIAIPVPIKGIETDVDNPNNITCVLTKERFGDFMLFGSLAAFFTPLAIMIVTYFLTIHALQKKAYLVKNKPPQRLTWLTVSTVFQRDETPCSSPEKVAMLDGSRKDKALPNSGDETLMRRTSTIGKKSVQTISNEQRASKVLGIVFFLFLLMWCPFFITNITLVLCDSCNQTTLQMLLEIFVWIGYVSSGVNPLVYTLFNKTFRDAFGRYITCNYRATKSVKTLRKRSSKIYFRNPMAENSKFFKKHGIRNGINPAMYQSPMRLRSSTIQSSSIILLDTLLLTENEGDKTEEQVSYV

[9] = molecular target: T4, Glucocorticoid receptor (Homo sapiens, UniProt P04150)
T4 sequence (P04150 whole entry): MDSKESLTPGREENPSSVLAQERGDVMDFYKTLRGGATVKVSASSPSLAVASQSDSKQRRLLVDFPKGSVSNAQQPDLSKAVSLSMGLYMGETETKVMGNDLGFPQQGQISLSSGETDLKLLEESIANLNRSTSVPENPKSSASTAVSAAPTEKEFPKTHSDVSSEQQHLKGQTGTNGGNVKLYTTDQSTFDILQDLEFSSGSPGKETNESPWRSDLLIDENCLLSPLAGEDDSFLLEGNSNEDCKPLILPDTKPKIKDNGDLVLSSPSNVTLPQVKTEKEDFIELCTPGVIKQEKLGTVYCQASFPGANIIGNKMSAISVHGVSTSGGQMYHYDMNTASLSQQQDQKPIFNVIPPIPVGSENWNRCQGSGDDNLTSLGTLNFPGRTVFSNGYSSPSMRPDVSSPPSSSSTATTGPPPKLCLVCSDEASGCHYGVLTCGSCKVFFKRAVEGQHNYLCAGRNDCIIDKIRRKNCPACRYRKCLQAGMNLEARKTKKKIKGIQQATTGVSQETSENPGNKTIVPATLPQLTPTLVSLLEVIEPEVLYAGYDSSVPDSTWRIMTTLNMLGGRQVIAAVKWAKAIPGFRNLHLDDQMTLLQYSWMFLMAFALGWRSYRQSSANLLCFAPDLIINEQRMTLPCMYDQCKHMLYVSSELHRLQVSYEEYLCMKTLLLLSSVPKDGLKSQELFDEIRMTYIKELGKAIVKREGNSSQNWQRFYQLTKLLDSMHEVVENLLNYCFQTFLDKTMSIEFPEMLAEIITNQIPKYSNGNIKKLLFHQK

[10] = molecular target: Sodium-dependent dopamine transporter (Homo sapiens, UniProt Q01959)
Chain of Sodium-dependent dopamine transporter (Q01959 whole entry): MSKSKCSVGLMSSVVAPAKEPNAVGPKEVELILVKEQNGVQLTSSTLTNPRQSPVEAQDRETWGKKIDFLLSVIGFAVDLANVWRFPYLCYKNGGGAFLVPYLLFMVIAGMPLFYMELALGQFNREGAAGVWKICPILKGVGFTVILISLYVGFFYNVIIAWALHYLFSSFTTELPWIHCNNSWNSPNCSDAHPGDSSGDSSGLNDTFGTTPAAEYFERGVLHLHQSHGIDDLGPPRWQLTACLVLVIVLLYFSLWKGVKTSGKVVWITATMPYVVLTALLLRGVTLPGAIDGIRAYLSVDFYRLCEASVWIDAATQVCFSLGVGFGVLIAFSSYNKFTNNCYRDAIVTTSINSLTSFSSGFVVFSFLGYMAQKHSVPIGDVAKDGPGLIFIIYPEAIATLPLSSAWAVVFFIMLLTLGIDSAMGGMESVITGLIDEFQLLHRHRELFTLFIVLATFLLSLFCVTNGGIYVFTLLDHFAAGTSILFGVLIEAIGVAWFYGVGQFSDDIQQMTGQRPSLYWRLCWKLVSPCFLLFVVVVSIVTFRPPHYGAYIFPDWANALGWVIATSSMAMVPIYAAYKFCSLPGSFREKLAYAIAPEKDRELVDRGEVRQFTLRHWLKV

[11] = molecular target: cGMP-inhibited 3',5'-cyclic phosphodiesterase 3A (Homo sapiens, UniProt Q14432); format: functional
Chain of cGMP-inhibited 3',5'-cyclic phosphodiesterase 3A (Q14432 whole entry): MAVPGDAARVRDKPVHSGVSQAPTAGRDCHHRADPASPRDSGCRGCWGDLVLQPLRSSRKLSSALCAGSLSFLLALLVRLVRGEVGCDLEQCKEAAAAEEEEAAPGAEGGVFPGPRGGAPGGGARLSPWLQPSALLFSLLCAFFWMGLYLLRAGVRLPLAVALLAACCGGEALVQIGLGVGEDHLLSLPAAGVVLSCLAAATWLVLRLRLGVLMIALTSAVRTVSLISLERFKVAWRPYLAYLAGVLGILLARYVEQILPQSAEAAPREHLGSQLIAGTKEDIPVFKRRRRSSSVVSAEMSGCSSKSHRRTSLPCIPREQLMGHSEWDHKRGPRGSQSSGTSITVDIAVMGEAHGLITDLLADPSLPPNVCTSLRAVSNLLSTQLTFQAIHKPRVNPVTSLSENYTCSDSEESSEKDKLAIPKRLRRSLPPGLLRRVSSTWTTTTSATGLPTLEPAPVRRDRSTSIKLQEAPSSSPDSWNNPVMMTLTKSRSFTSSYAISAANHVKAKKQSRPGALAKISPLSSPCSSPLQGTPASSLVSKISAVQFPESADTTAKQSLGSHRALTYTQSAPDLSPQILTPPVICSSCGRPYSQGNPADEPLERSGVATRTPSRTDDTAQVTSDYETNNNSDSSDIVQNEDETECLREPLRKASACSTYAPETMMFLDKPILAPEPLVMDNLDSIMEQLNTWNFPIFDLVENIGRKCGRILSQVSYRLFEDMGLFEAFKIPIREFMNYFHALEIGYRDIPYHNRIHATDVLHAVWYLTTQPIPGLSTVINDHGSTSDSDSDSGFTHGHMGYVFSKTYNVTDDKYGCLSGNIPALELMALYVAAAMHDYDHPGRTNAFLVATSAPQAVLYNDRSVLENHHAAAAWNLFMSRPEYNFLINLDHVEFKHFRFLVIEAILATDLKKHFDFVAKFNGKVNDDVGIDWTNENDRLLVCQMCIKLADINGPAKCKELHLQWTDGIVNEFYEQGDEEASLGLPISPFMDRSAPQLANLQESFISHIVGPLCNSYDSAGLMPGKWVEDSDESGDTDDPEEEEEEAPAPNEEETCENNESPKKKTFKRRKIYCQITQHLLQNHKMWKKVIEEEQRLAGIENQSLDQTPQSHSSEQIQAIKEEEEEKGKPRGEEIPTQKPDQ

[12] = molecular target: D(3) dopamine receptor (Homo sapiens, UniProt P35462)
Chain of D(3) dopamine receptor (P35462 whole entry): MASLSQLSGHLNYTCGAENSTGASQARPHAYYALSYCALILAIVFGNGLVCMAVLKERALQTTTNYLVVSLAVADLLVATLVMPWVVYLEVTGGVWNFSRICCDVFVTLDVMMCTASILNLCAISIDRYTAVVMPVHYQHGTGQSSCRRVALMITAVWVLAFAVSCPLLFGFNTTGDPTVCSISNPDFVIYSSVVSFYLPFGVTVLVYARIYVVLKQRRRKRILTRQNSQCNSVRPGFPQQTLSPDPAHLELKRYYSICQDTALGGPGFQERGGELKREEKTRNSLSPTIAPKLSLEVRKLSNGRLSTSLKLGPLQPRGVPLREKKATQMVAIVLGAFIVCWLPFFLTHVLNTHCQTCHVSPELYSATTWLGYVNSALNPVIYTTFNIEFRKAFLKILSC

[13] = molecular target: Beta-2 adrenergic receptor (Homo sapiens, UniProt P07550); format: functional, cell-based
Chain of Beta-2 adrenergic receptor (P07550 whole entry): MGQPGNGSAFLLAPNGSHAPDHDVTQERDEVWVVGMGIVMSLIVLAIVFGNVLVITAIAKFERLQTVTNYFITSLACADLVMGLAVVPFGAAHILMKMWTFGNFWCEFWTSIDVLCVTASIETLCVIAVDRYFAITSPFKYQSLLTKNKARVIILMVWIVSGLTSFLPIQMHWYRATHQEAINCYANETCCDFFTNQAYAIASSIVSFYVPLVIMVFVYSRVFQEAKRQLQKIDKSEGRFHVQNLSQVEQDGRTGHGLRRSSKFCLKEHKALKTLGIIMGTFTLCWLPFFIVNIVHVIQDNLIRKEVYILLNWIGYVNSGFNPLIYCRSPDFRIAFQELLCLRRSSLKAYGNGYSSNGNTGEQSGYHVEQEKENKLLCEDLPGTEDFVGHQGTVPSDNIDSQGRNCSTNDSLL

[14] = molecular target: T5, 5-hydroxytryptamine receptor 1A (Homo sapiens, UniProt P08908); format: functional, cell-based
T5 sequence (P08908 whole entry): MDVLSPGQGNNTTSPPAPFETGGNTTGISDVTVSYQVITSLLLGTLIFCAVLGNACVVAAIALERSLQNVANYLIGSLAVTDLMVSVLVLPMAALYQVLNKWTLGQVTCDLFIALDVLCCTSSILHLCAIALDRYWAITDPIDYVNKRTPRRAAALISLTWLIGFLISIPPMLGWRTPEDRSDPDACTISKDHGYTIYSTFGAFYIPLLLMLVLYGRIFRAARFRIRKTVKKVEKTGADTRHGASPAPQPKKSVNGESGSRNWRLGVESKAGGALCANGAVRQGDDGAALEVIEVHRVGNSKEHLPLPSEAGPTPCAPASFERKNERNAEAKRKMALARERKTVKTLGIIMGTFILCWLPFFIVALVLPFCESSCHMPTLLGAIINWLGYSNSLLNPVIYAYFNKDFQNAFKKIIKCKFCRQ
Note: assay procedure not described here.

SMILES: CC(=O)Oc1ccccc1C(=O)Nc1ncc([N+](=O)[O-])s1 [NITAZOXANIDE]
AC50 [1]: > 10 µM
AC50 [2]: 8.8 µM
AC50 [3]: > 30 µM
AC50 [4]: > 30 µM
AC50 [5]: > 30 µM
AC50 [6]: > 30 µM
AC50 [7]: > 30 µM
AC50 [8]: 17 µM
AC50 [9]: > 30 µM
AC50 [10]: 7.3 µM
AC50 [11]: > 30 µM
AC50 [12]: 25 µM

AC50 [1]: > 30 µM
AC50 [4]: > 30 µM
SMILES: CCCCCCCCCCC[C@@H](C[C@@H]1OC(=O)[C@H]1CCCCCC)OC(=O)[C@H](CC(C)C)NC=O [ORLISTAT]

SMILES: O=C1[C@H]2CCCC[C@H]2C(=O)N1CCCCN1CCN(c2nsc3ccccc23)CC1 [PEROSPIRONE]
AC50 [1]: > 30 µM
AC50 [4]: > 30 µM

SMILES: CC(C)COc1ccc(CNC(=O)N(Cc2ccc(F)cc2)C2CCN(C)CC2)cc1 [PIMAVANSERIN]
AC50 [1]: > 30 µM
AC50 [4]: > 30 µM

SMILES: CC(C)(C)C(=O)NCCCC(=O)O [PIVAGABINE]
AC50 [1]: > 30 µM
AC50 [4]: > 30 µM

SMILES: CC(C)[N+](C)(CCOC(=O)C1c2ccccc2Oc2ccccc21)C(C)C [PROPANTHELINE]
AC50 [1]: > 30 µM
AC50 [4]: > 30 µM

SMILES: CN(C)C(=O)c1nc(CNC(=O)CN)n(-c2ccc(Cl)cc2C(=O)c2ccccc2Cl)n1 [RILMAZAFONE]
AC50 [1]: > 30 µM
AC50 [4]: > 30 µM

SMILES: CCCN(CCc1cccs1)[C@H]1CCc2c(O)cccc2C1 [ROTIGOTINE]
AC50 [2]: > 30 µM
AC50 [13]: > 30 µM
AC50 [6]: > 30 µM
AC50 [14]: 0.67 µM
AC50 [10]: 1.3 µM
AC50 [11]: > 30 µM

SMILES: NC(=O)NS(=O)(=O)c1ccc(N)cc1 [SULFACARBAMIDE]
AC50 [1]: > 30 µM
AC50 [4]: > 30 µM

SMILES: CCCCCCCCNC(C)C(O)c1ccc(SC(C)C)cc1 (stereo not given) [SULOCTIDIL]
AC50 [1]: 11 µM
AC50 [4]: 16.7 µM

SMILES: CN1CCN(CCCN2c3ccccc3Sc3ccc(S(=O)(=O)N(C)C)cc32)CC1 [THIOPROPERAZINE]
AC50 [13]: > 30 µM
AC50 [5]: > 30 µM
AC50 [6]: > 30 µM
AC50 [7]: > 10 µM
AC50 [8]: > 30 µM
AC50 [11]: > 30 µM
AC50 [12]: 0.031 µM

SMILES: CC1(C)O[C@@H]2[C@@H](CO[C@@]3(COS(N)(=O)=O)OC(C)(C)O[C@@H]23)O1 [TOPIRAMATE]
AC50 [1]: > 30 µM
AC50 [2]: > 10 µM
AC50 [3]: > 10 µM
AC50 [4]: > 30 µM
AC50 [5]: > 10 µM
AC50 [6]: > 10 µM
AC50 [7]: > 10 µM
AC50 [14]: > 10 µM
AC50 [8]: > 10 µM
AC50 [10]: > 10 µM
AC50 [11]: > 30 µM
AC50 [12]: > 10 µM

SMILES: NCCc1ccc(O)cc1 [TYRAMINE]
AC50 [1]: > 30 µM
AC50 [4]: > 30 µM
